Measurements reported in ChEMBL document CHEMBL5331060, “Bisindole natural products: A vital source for the development of new anticancer drugs” (Eur J Med Chem, 2022).
pEC50, pIC50: −log10 of the molar value. In brackets after ≈: the same amount, converted by molar mass.

What was measured:
L1210 [1] = experiment: Antiproliferative activity against mouse L1210 cells assessed as inhibition of cell growth; format: functional; conditions: L1210, read-out: ED50
A549 [2] = experiment: Antiproliferative activity against human A549 cells assessed as inhibition of cell growth; format: functional, cell-based
HT-29 [3] = experiment: Antiproliferative activity against human HT-29 cells assessed as inhibition of cell growth; format: functional, cell-based
HCT-116 = experiment: Antiproliferative activity against human HCT-116 cells assessed as inhibition of cell growth; format: functional, cell-based
[4] = Antiproliferative activity against vincristine-resistant human KB cells assessed as inhibition of cell growth; format: functional, cell-based
MDA-MB-231 = experiment: Antiproliferative activity against human MDA-MB-231 cells assessed as inhibition of cell growth; format: functional, cell-based
MCF7 [5] = experiment: Antiproliferative activity against human MCF7 cells assessed as inhibition of cell growth; format: functional, cell-based
KB [6] = experiment: Antiproliferative activity against vincristine-sensitive human KB cells assessed as inhibition of cell growth; format: functional, cell-based
PC-3 [7] = experiment: Antiproliferative activity against human PC-3 cells assessed as inhibition of cell growth; format: functional, cell-based
HT-29 [8] = experiment: Antiproliferative activity against human HT-29 cells assessed as inhibition of cell growth incubated for 48 hrs by SRB assay; format: functional, cell-based; conditions: HT-29, time 48 hrs, read-out: ED50 (the source's name)
K562 = experiment: Antiproliferative activity against human K562 cells assessed as inhibition of cell growth incubated for 48 hrs by MTT assay; format: functional, cell-based; conditions: K562, 48 h
A549 [9] = experiment: Antiproliferative activity against human A549 cells assessed as inhibition of cell growth incubated for 48 hrs by MTT assay; format: functional, cell-based; conditions: A549, 48 h
PC-3 [10] = experiment: Antiproliferative activity against human PC-3 cells assessed as inhibition of cell growth incubated for 48 hrs by MTT assay; format: functional, cell-based; conditions: PC-3, 48 h
BT-549 = experiment: Antiproliferative activity against human BT-549 cells assessed as inhibition of cell growth incubated for 48 hrs by MTT assay; format: functional, cell-based; conditions: BT-549, 48 h
NCI-H460 = experiment: Antiproliferative activity against human NCI-H460 cells assessed as inhibition of cell growth by MTT assay; format: functional, cell-based
HepG2 [11] = experiment: Antiproliferative activity against human HepG2 cells assessed as inhibition of cell growth by MTT assay; format: functional, cell-based
MCF7 [12] = experiment: Antiproliferative activity against human MCF7 cells assessed as inhibition of cell growth incubated for 48 hrs by MTT assay; format: functional, cell-based; conditions: MCF7, 48 h
4T1 = experiment: Antiproliferative activity against mouse 4T1 cells assessed as inhibition of cell growth incubated for 48 hrs by MTT assay; format: functional, cell-based; conditions: 4T1, 48 h
A549 [13] = experiment: Antiproliferative activity against human A549 cells assessed as inhibition of cell growth incubated for 48 hrs by MTS assay; format: functional, cell-based; conditions: A549, 48 h
HepG2 [14] = experiment: Antiproliferative activity against human HepG2 cells assessed as inhibition of cell growth incubated for 48 hrs by MTS assay; format: functional, cell-based; conditions: HepG2, 48 h
SMMC-7721 [15] = experiment: Antiproliferative activity against human SMMC-7721 cells assessed as inhibition of cell growth incubated for 48 hrs by MTS assay; format: functional, cell-based; conditions: SMMC-7721, 48 h
HeLa = experiment: Antiproliferative activity against human HeLa cells assessed as inhibition of cell growth incubated for 48 hrs by MTS assay; format: functional, cell-based
HL-60 = experiment: Antiproliferative activity against human HL-60 cells assessed as inhibition of cell growth incubated for 48 hrs by MTT assay; format: functional, cell-based; conditions: HL-60, 48 h
SK-BR-3 = experiment: Antiproliferative activity against human SK-BR-3 cells assessed as inhibition of cell growth incubated for 48 hrs by MTT assay; format: functional, cell-based; conditions: SK-BR-3, 48 h
SMMC-7721 [16] = experiment: Antiproliferative activity against human SMMC-7721 cells assessed as inhibition of cell growth incubated for 48 hrs by MTT assay; format: functional, cell-based; conditions: SMMC-7721, 48 h
PANC-1 = experiment: Antiproliferative activity against human PANC-1 cells assessed as inhibition of cell growth incubated for 48 hrs by MTT assay; format: functional, cell-based; conditions: PANC-1, 48 h
Jurkat = experiment: Antiproliferative activity against human Jurkat cells assessed as inhibition of cell growth; format: functional, cell-based
KB [17] = experiment: Antiproliferative activity against drug-sensitive human KB cells assessed as inhibition of cell growth; format: functional, cell-based
P388 = experiment: Antiproliferative activity against mouse P388 cells assessed as inhibition of cell growth; format: functional, cell-based
HepG2 [18] = experiment: Antiproliferative activity against human HepG2 cells assessed as inhibition of cell growth incubated for 24 hrs by colorimetric method; format: functional, cell-based; conditions: HepG2, 24 h
HepG2 [19] = experiment: Antiproliferative activity against human HepG2 cells assessed as inhibition of cell growth incubated for 24 hrs by MTT assay; format: functional, cell-based; conditions: HepG2, 24 h
L1210 [20] = experiment: Antiproliferative activity against mouse L1210 cells assessed as inhibition of cell growth incubated for 24 hrs by MTT assay; format: functional, cell-based; conditions: L1210, 24 h
[21] = Antiproliferative activity against human BC cells assessed as inhibition of cell growth incubated for 24 hrs by MTT assay; format: functional, cell-based
AGS = experiment: Antiproliferative activity against human AGS cells assessed as inhibition of cell growth incubated for 24 hrs by MTT assay; format: functional, cell-based

Structure (SMILES): CN1C[C@H](c2c[nH]c3cc(Br)ccc23)NC[C@H]1c1c[nH]c2cc(Br)ccc12
- EC50 (L1210 [1]): 10 µg/mL (≈ 20.5 µM)

Structure (SMILES): C/C=C1/CN2CC[C@]34C(=C(CN5c6ccccc6[C@@]67CCN8CCC[C@]9(CC[C@]56[C@H](C(=O)OC)C9)[C@H]87)[C@H]1C[C@H]23)Nc1ccccc14
- pIC50 (A549 [2]): 5.89
- pIC50 (HT-29 [3]): 5.89
- pIC50 (HCT-116): 5.89
- pIC50 [4]: 5.89
- pIC50 (MDA-MB-231): 5.89
- pIC50 (MCF7 [5]): 5.89
- pIC50 (KB [6]): 5.89
- pIC50 (PC-3 [7]): 5.89

Structure (SMILES): C/C=C1/C[N+]2(C)CC[C@@]34C[C@H]5[C@@H]6C[C@H]7c8c(c9ccccc9n8C)C[C@@H]([C@@H]6CO[C@@]5(C)O[C@@]35[C@@H]2C[C@@H]1[C@@H](C(=O)OC)N5c1ccccc14)N7C (some centres undefined)
- pEC50 (HT-29 [8]): 5.19

Structure (SMILES): CC[C@]12C=C[C@H](C3=CC4CC(C(=O)OC)=C5Nc6cc(OC)ccc6[C@@]56CCN(C3)[C@@H]46)N3CC[C@]4(C(=C(C(=O)OC)C1)Nc1cc(OC)ccc14)[C@@H]32 (some centres undefined)
- pIC50 (K562): 4.97
- pIC50 (A549 [9]): 4.94
- pIC50 (PC-3 [10]): 5.46
- pIC50 (BT-549): 6.05

Structure (SMILES): COC(=O)c1[nH]cc2c1[C@]1(CNc3ccc(Cl)cc31)c1[nH]c3ccc(Cl)cc3c1-2
- IC50 (NCI-H460): 15 µg/mL (≈ 35.4 µM)
- IC50 (HepG2 [11]): 6 µg/mL (≈ 14.1 µM)

Structure (SMILES): C/C=C1/CN(C)[C@H]2Cc3c([nH]c4ccccc34)[C@H](c3cc4[nH]c5c(c4cc3OC)CCN3C[C@@H]4C[C@H](CC)[C@H]3[C@@]5(C(=O)OC)C4)C[C@@H]1C2C(=O)OC (some centres undefined)
- pIC50 (MCF7 [12]): 6.00
- pIC50 (4T1): 5.85

Structure (SMILES): CC[C@]12CCCn3c(Cc4cc5c6n4CCC[C@]6(CC)CCC(=O)Nc4ccccc4-5)cc(c31)-c1ccccc1NC(=O)CC2
- pIC50 (A549 [13]): 4.79
- pIC50 (HepG2 [14]): 5.15
- pIC50 (SMMC-7721 [15]): 5.37
- pIC50 (HeLa): 5.36

Structure (SMILES): COC(=O)C1=CN2CCc3c([nH]c4ccccc34)[C@@H]2C[C@@H]1C1=CO[C@@H]([C@H]2[C@@H]3CCN4CC[C@@]5(C(=C3C(=O)OC)Nc3ccccc35)[C@@H]24)C[C@@H]1C
- pIC50 (A549 [2]): 8.51
- pIC50 (HT-29 [3]): 8.69

Structure (SMILES): CCC12CCCN3CC[C@@]4(OC)c5cc([C@@H]6C[C@@]7(CC)CCCN8CCc9c(n6c6ccccc96)[C@H]87)c(O)cc5N(CCC1)C324 (some centres undefined)
- pIC50 (MCF7 [12]): 6.30
- pIC50 (HL-60): 6.30
- pIC50 (SK-BR-3): 6.30
- pIC50 (SMMC-7721 [16]): 6.30
- pIC50 (A549 [9]): 6.30
- pIC50 (PANC-1): 6.30

Structure (SMILES): C/C=C1/CN2CC[C@]34c5ccccc5N5[C@H](C(=O)OC)[C@H]1C[C@H]2[C@@]53Oc1c4cc2c(c1O)C(=O)O[C@@]13[C@@H]4C[C@H]5/C(=C\C)CN4CC[C@@]21c1ccccc1N3[C@@H]5C(=O)OC
- IC50 (Jurkat): 3.7 µg/mL (≈ 4.65 µM)
- IC50 [4]: 2 µg/mL
- IC50 (KB [17]): 3.2 µg/mL (≈ 4.03 µM)

Structure (SMILES): COc1cc2c(cc1CC(C(C)=O)[C@@H]1C[C@H]3c4c(c5ccccc5n4C)C[C@@H]([C@@H]1CO)N3C)c1c(n2C)[C@@H]2C[C@H]3C(C(C)=O)=COC[C@H]3[C@H](C1)N2C (some centres undefined)
- IC50 (P388): 12.3 µg/mL (≈ 17.4 µM)

Structure (SMILES): COC(=O)/C1=C/c2c([nH]c3ccccc23)/C(C(=O)OC)=C\c2c1[nH]c1ccccc21 [CAULERPIN]
- IC50 (HepG2 [18]): 24.6 µg/mL (≈ 61.7 µM)

Structure (SMILES): O=C1N[C@@H](c2c[nH]c3cc(Br)ccc23)CN=C1c1c[nH]c2cc(Br)ccc12 [HAMACANTHIN A]
- IC50 (HepG2 [19]): 12.5 µg/mL (≈ 25.7 µM)
- IC50 (L1210 [20]): 1.1 µg/mL (≈ 2.26 µM)
- IC50 [21]: 10.7 µg/mL (≈ 22 µM)
- IC50 (AGS): 1.1 µg/mL (≈ 2.26 µM)
